These results are taken from patent US5750552A, “Imidazoline derivative, possible tautomer thereof, and vulnerary including such derivative or tautomer” (Arax Co., Ltd., priority 1995, dated 1998).

The structures appear in SMILES notation.

Experiment [1] has as its system water-immersion restraint stress-induced gastric ulcer. Nature of the experiment: Inhibitory effect on water-immersion restraint stress-induced gastric ulcer. The format is in vivo, SD rats. Particulars: 10 mg/kg oral, 30 min before stress. How it is done: Inhibitory effect on water-immersion restraint stress-induced gastric ulcer
Male 7-week SD rats were fasted for 24 hours, with a fast of water beginning in early morning of the day when the experiments were performed. The rats were classified into groups each consisting of five rats, such that all the groups have substantially the same average weight. Thirty minutes before giving a stress to the rats, the compounds of the Examples indicated in TABLE 3 were orally administered as specimen drugs to the rats, with a dose of 10 mg/kg. The rats were then kept in stress cages, and were given a stress by immersing the cages in a water bath kept at a substantially constant temperature of 23°±1° C., such that the water level was at the height of the xiphoid of the rats. Seven hours later, the specimen rats were sacrificed by ether, and the gastric mucosa of each rat was semi-fixed with 2% formaline. The longitudinal length of the damaged area of the gastric mucosa was measured. A sum of the measured length values of the rats of each group was calculated as an ulcer index. An anti-ulcer or ulcer inhibitory percent (%) was calculated as {1-(ulcer index of each group of specimen rats)/(ulcer index of non-specimen group)}×100.

The test system of the next experiment is wound in rat. Briefly: Healing effect on wound in rat. It counts as in vivo, SD rats. Particulars: for Healing days / Healing Index: 15 days; for effect on healing days and Healing Index (in words): TABLES 7 and 8. How it is done:
Healing Effect on wound in rat
Male 7-week SD rats were classified into groups each consisting of 6-7 rats, such that all the groups have substantially the same average weight. The experiment was performed on the rats according to a method of Tsurumi et al. (Oyo Yakuri, Vol. 7, pp833, 1973). Initially, the rats were subjected to an anesthesia with pentobarbital. The hair of the back of each rat was clipped, and the skin was disinfected with 70% ethanol. Then, the skin was lightly pulled and punched off in a direction from the right to the left by means of a punch whose diameter is 10 mm, so as to form two open wounds on portions of the back of the rat which are symmetrical to each other with respect to the center line of the back. The compounds of Examples indicated in the following TABLES 7 and 8 were used as specimen drugs, and orally administered once a day to each of the rats with doses indicated in the TABLES 7 and 8. The oral administration continued for 15 consecutive days, beginning from the first day when the wounds were formed on the back of each rat.
To clarify the healing effect on the wounds, an Healing Index and healing days were obtained in the following manner. Initially, the lengths of a major axis and a minor axis of each wound formed on the back were measured using calipers. On the basis of the measured length values, the area of each wound was calculated as the area of an ellipse. The Healing Index was obtained according to a method of Nakano et al. (Oyo Yakuri, Vol. 47, pp29, 1994). Described more specifically, a ratio of area of each wound was chronologically represented in a graph, and an area of the lower part of a curve in the graph during a period from the fifth day to the fifteenth day after the wounds were formed was obtained as the Healing Index. […] The healing days were obtained as the number of the days that were required for the wounds to be completely covered with regenerated epidermises. As for the wound that was healed in more than 15 days, the healing days were obtained as 16 days.

Another experiment relates to bFGF mRNA. Briefly: Effect on additional expression of bFGF mRNA in RGM1 cells (RT-PCR, band intensity). The format is cell-based, rat. Further details: key: ++: the expression of the bFGF mRNA in the imidazoline-treated cells was considerably increased; +: the expression of the bFGF mRNA was increased to some extent. The note with it: 48 hours, vs cells without the derivative. The source says: Effect of imidazoline derivatives on the additional expression of the bFGF
There will be next explained an effect of the imidazoline derivatives in vitro.
Initially, there will be explained an effect of the imidazoline derivative on the additional expression of bFGF in the cells cultured. The reverse transcription-polymerase chain reaction (PCR) was used to explain the effects of imidazoline derivatives on the additional expression of bFGF, and then the PCR products were subjected to electrophoresis to confirm a bFGF band.
An established rat gastric mucosal epithelial cell line RGM1 was seeded in petri dishes (1×10^6 cells/dish), in the presence of D-MEM/Ham 12 (1:1) mixed medium containing 20% fetal calf serum. After 24 hours, the imidazoline derivatives as the specimen drugs according to the present invention were applied in the culture medium, and the cells were cultured for 48 hours. The compounds prepared in Examples 1 and 14 were used as the specimen drugs. Cultures were then supplemented with the compounds in final concentrations (10 μM and 100 μM for the compound of Example 1, and 3 μM, 10 μM and 100 μM for the compound of Example 14).
From the cultured cells of each sample subjected to the above-described processing by the specimen drugs, total cellular RNA was extracted according to Acid Guanidinium Thiocyanate-Phenol-Chloroform method (AGPC). Described more specifically, after cultivation with the above compounds in the culture medium, the culture supernatant was completely removed by suction. To the cells of each sample left in the petri dish, 500 μL of Solution D (consisting of: 4M of guanidinethiocyanate; 25 mM of sodium citrate; 0.5% sarkosyl solution, 0.1M of 2-mercaptoethanol) was added, and the cells were scraped with rubber policeman (available from SUMITOMO BAKELITE CO., LTD.). The thus obtained cell suspension was transfered into a micro centrifuge tube, and there were successively added 50 μL of 2M sodium acetate (pH 4.0), 500 μL of water-saturated phenol and 100 μL of chloroform-isoamyl alcohol (49:1). The suspension was mixed each time the above-described substances were added. The suspension was placed on ice for 15 minutes after it was intensely shaken for 1 minute. Then, the suspension was centrifuged at 10000 rpm for 20 minutes at 4° C. The aqueous layer (upper layer) was transfered into another micro centrifuge tube, and was intimately mixed with an equivalent amount of isopropanol. After the mixture was kept at -20° C. for one hour, it was centrifuged at 10000 rpm for 20 minutes at 4° C. After the centrifugation, the upper layer was discarded, and a precipitate of mRNA was completely dissolved in 200 μL of Solution D. The thus obtained solution was mixed again with an equivalent amount of isopropanol and the mixture was kept at -20° C. for one hour. The mixture was then subjected to centrifugation for 20 minutes at 4° C. and 10000 rpm. After the centrifugation, the supernatant was discarded, and the precipitate was centrifuged at 10000 rpm for 10 minutes at 4° C. The supernatant was discarded, while the precipitate was dried in vacuo for 5 minutes. The total RNA was dissolved in 50 μL of distilled water processed by diethyl pyrocarbonate (DEPC). The concentration of total RNA was measured on the basis of its absorbance at 260 nm by ultraviolet spectrum.
The CDNA synthesis was performed by means of Reverse Transcriptase using the above obtained total RNA as a template. As a primer, a random primer was employed. […]

In experiment [2] the test system is gastric acid secretion in a pylorus ligated rat. Nature of the experiment: Inhibitory effect on the gastric acid secretion in a pylorus ligated rat. It counts as in vivo, SD rats. Particulars: 4 hours. As to the method:
Inhibitory effect on the gastric acid secretion in a pylorus ligated rat Male 7-week SD rats were fasted for 24 hours, with a fast of water beginning in early morning of the day when the experiments were performed. The rats were classified into groups each consisting of five rats, such that all the groups have substantially the same average weight. The experiments were performed according to a method of Shay et. al. (Shay, H. et. al., Gastroenterology, Vol. 5, pp43, 1945). Described more specifically, each of the rats was subjected to a light anesthesia by ether, and the hair of the abdomen of each rat was clipped. Then, the abdomen was incised over a length of 1.5 cm along the center line downwards from a portion 1 cm below the xiphoid of the rat, and the stomach was taken out of the body. A portion connecting the pylorus and the duodenum was ligated by suturing thread. […] After the administration, the skin of the abdominal muscle and abdomen was sutured. The rats were kept in cages and fasted for 4 hours with a fast of water. Then, the rats were sacrificed by ether, and the stomach of each rat was removed. The gastric content was obtained from a small hole formed through the stomach of each rat and was collected in a test tube. […] An amount of supernatant was measured as a volume of gastric acid, and a total acidity of the gastric acid was also measured. A volume of gastric acid inhibitory percent (%) and a total acidity inhibitory percent (%) were calculated in the same manner as the ulcer inhibitory percent was calculated. The total acidity was obtained as a product of the amount of gastric acid secreted for 4 hours and the acidity per 1 mL of the gastric acid which was subjected to neutralization titration by an aqueous solution of 0.01N sodium hydroxide.

A further experiment deals with bFGF. Nature of the experiment: Production amount of bFGF in RGM1 culture supernatant (ELISA). The note with it: not stated which. The format is cell-based, Wistar rat. How it is done:
Effect of imidazoline derivatives on the additional expression of bFGF
Initially, RGM1 cells which are derived from a gastric mucosa epithelial cell of a Wistar rat were seeded into 24 well plates (2×10^4 cells/dish, 1 mL/well), and cultured for 24 hours. As the imidazoline derivative according to the present invention, the compound obtained in Example 14 was used. The compound was applied to the cells in final concentrations of 3 μM, 10 μM and 30 μM. After 24 hours, the culture supernatants which correspond to the respective concentration values were collected, and analyzed using bFGF ELISA kit. Similarly, the culture supernatants were collected 48 hours after the application of the compound. Described more specifically, 50 μL of each culture supernatant was applied to a 96 well microplate coated with bFGF monoclonal antibody. The plate was incubated for a predetermined time so that the bFGF contained in each culture supernatant was bonded to the bFGF monoclonal antibody. Thereafter, each supernatant was reacted with horseradish peroxidase conjugated antibody which is able to recognize another epitope of the bFGF, so as to form, on the 96 well microplate, a sandwich type composite body consisting of immobilized antibody (bFGF monoclonal antibody), antigen (bFGF), and HRP linked antibody. Subsequently, HRP linked antibody of the composite body was colored using o-phenylenediamine and H2 O2. The reaction was terminated by using sulfuric acid after a predetermined time has elapsed. Then, the absorbance of reactant at 490 nm was measured using a micro-platereader. The production amount of the bFGF was obtained for each culture supernatant, on the basis of the measured absorbance values, according to a standard curve prepared for a standard bFGF of a human body.

In the case of `CCC1(CC)N=C([S+]([O-])Cc2ccccc2N(C)C)NC1=S` (centres unmarked) [Example 7, 2-(2-dimethylaminobenzylsulfinyl)-5,5-diethylimidazolin-4-thione], the “Inhibitory Percent (ulcer)” value in experiment [1] stood at 53.9%.
On to `CC1(C)N=C([S+]([O-])Cc2ccccc2NCC(F)(F)F)NC1=S` (centres unmarked) [Example 12, 2-[2-N-(2,2,2-trifluoroethyl)aminobenzylsulfinyl]-5,5-dimethylimidazolin-4-thione], for which the “Inhibitory Percent (ulcer)” value in experiment [1] stood at 46.6%.
Regarding `CC1(C)N=C([S+]([O-])Cc2ccccc2NC(=O)C(F)(F)F)NC1=S` (centres unmarked) [Example 1, 2-(2-N-trifluoroacetylaminobenzylsulfinyl)-5,5-dimethylimidazolin-4-thione], the Healing days in the experiment on wound in rat (TABLE 7, 50 mg/kg oral once a day, control 15.1 ± 0.22) is reported as 14.4 ± 0.38 days; in the experiment with wound in rat (TABLE 7, 100 mg/kg oral once a day, control 15.1 ± 0.22), 14.2 ± 0.37 days. Besides, the “Healing Index” value came to 183.2 ± 11.2 in the experiment with wound in rat (TABLE 7, 50 mg/kg oral once a day, control 188.3 ± 18.2) and 157.5 ± 18.9 in the experiment on wound in rat (TABLE 7, 100 mg/kg oral once a day, control 188.3 ± 18.2). Also, the “effect on healing days and Healing Index (in words)” value in the experiment with wound in rat was “effective to reduce the healing days and lower the Healing Index”. Also, the “Band Intensity” value with bFGF mRNA (10 μM) and in the experiment on bFGF mRNA (100 μM) was “+” in each case.
For the compound `CN/C(=N/CCSCc1nc[nH]c1C)NC#N` [cimetidine], the “Total acidity Inhibitory percent” value in experiment [2] (10 mg/kg intraduodenal) stood at 27.7%; in experiment [2] (30 mg/kg intraduodenal), 51.8%; in experiment [2] (100 mg/kg intraduodenal), 76.1%. Moreover, the “Volume of Gastric acid Inhibitory percent” value stood at 22.7% in experiment [2] (10 mg/kg intraduodenal), 31.2% in experiment [2] (30 mg/kg intraduodenal) and 52.8% in experiment [2] (100 mg/kg intraduodenal).
On to `CC(C)CN(C)c1ccccc1C[S+]([O-])C1=NC(C)(C)C(=S)N1` (centres unmarked) [Example 14, 2-(2-N-isobutyl-N-methylaminobenzylsulfinyl)-5,5-dimethylimidazolin-4-thione], for which the “Production amount of bFGF” value was found to be 15 pg/mL in the experiment with bFGF (concentration of drug 3, 24 or 48 hours); 29 pg/mL with bFGF (concentration of drug 10, 24 or 48 hours); 36 pg/mL in the experiment on bFGF (concentration of drug 30, 24 or 48 hours). The Healing days is listed as 13.5 ± 0.42 days in the experiment with wound in rat (TABLE 8, 50 mg/kg oral once a day, control 14.3 ± 0.37) and 13.6 ± 0.44 days in the experiment on wound in rat (TABLE 8, 100 mg/kg oral once a day, control 14.3 ± 0.37). Also, the “Healing Index” value stood at 116.5 ± 7.0 with wound in rat (TABLE 8, 50 mg/kg oral once a day, control 152.0 ± 9.5) and 126.5 ± 8.3 in the experiment on wound in rat (TABLE 8, 100 mg/kg oral once a day, control 152.0 ± 9.5). The “effect on healing days and Healing Index (in words)” value in the experiment on wound in rat is “effective to reduce the healing days and lower the Healing Index”. For the same compound, the “Band Intensity” value with bFGF mRNA (3 μM), in the experiment on bFGF mRNA (10 μM) and in the experiment on bFGF mRNA (100 μM) was “++” each time.
